Here are results for one compound from publication PMC4604124, “In Vitro Characterization of the Pharmacological Properties of the Anti-Cancer Chelator, Bp4eT, and Its Phase I Metabolites” (PLoS ONE, 2015).

In the experiment the test system is MCF-7 cells. Nature of the experiment: Epifluorescence microscopy, triple staining MDC / annexin V-FITC / propidium iodide. Type of experiment: cell-based, human. Conditions: Bp4eT 10 or 100 nM 72 h, rapamycin 1 nM 30 min. As for the experimental part: Markers used to assess autophagy/apoptosis/necrosis in MCF-7 cells and changes of lysosomal and mitochondrial morphology were observed using an Eclipse Ti inverted epifluorescence microscope (Nikon, Tokyo, Japan), that was equipped with a cooled digital camera Zyla 5.5 sCMOS (Andor Technology, Belfast, UK), and NIS-Elements C 4.1 software (Laboratory Imaging, Prague, Czech Republic). The MCF-7 cells were seeded in 6-well plates with cover slips on the bottom at a density of 150,000 cells/well and incubated as described above in the presence or absence of 10 or 100 nM Bp4eT.
To assess the mechanism of cellular death after incubation with Bp4eT, triple staining with monodansyl cadaverine (MDC; 50 μM; λex = 390 nm; λem = 455 nm; Sigma-Aldrich), annexin V-FITC (5 μL/mL; λex = 495 nm; λem = 519 nm; Invitrogen, Carlsbad, CA, USA), and propidium iodide (5 μg/mL; λex = 560 nm; λem = 630 nm) was used. MDC is a marker of autophagosomes and lysosomes and results in blue fluorescence. As a positive control for autophagy, MCF-7 cells were incubated with 1 nM rapamycin (Sigma-Aldrich) for 30 min/37°C, which is an established inducer of autophagy. Annexin V has high affinity to phosphatidylserine, which is translocated to the surface of both early- and late-stage apoptotic cells. […]

As to `CO[C@H]1C[C@@H]2CC[C@@H](C)[C@@](O)(O2)C(=O)C(=O)N2CCCC[C@H]2C(=O)O[C@H]([C@H](C)C[C@@H]2CC[C@@H](O)[C@H](OC)C2)CC(=O)[C@H](C)/C=C(\C)[C@@H](O)[C@@H](OC)C(=O)[C@H](C)C[C@H](C)/C=C/C=C/C=C/1C` [rapamycin, reference compound], the “Staining for autophagy/apoptosis/necrosis (MDC, annexin V-FITC, propidium iodide)” value is listed as “enlarged cells with ample granular, cytoplasmic MDC staining”.
